This is an account of results in publication PMC5489047, “Molecular glues for manipulating enzymes: trypsin inhibition by benzamidine-conjugated molecular glues” (Chemical Science, 2015).

The target in assay [1] is T1, trypsin (Sus scrofa, UniProt P00761).
T1 construct: purchased Wako; host or cells: porcine pancreas (natural source)
Nature of the assay: Circular dichroism (CD) spectral titration of trypsin, Hill equation fit. The class given is binding. To be noted: trypsin 5 μM, CD at 237 nm, 25 °C, Tris–HCl buffer (50 mM Tris–HCl, 10 mM CaCl2, pH 8.0), read-out: association constant (K assoc) with trypsin (converted). An excerpt:
We first investigated the effect of conjugation of molecular glues to BA on the binding affinity for trypsin. Trypsin is known to alter its conformation upon interaction with metal ions,[24] polymers[25] and proteins,[26] resulting in circular dichroism (CD) spectral changes. Upon mixing with Glue10–BA, trypsin also changed its CD spectrum. […] According to the reported method,[27],[28] we estimated the association constant (K assoc) of Glue10–BA with trypsin to be 5.5 × 10^5 M^–1 by fitting the fractions of bound trypsin (Fig. 3, red) to the Hill equation.[27],[28] […]
Fig. 3 Circular dichroism (CD) spectral titration profiles of trypsin (5 μM) at 237 nm with molecular glues Glue29–BA (brown; 0–2.5 μM), Glue10–BA (red; 0–7 μM), Glue10–Ph (green; 0–12 μM) and ^mGlue27–BA (purple; 0–50 μM), together with reference TEG–BA (blue; 0–200 μM), at 25 °C in Tris–HCl buffer (50 mM Tris–HCl, 10 mM CaCl2, pH 8.0). The fractions of bound trypsin were calculated from (I – I 0)/(I sat – I 0), where I 0, I and I sat represent the CD intensities before titration, observed with titrants and at the saturation point, respectively. […]
The association constants (K assoc) were calculated based on the Hill equation by plotting the fractions of bound trypsin versus the concentrations of a titrant. […]

Assay [2] concerns the target T1, trypsin. Nature of the assay: Trypsin activity assay (TAME hydrolysis, absorption at 247 nm). The class given is biochemical. To be noted: trypsin 20 nM, TAME 1 mM. An excerpt:
Trypsin hydrolyses peptide linkages at the carboxyl side of lysine and arginine residues.[29] As already described in Fig. 2a, this protease activity is inhibited by BA.[10] Considering the exceptionally high affinity of Glue29–BA for trypsin, we expected that this BA-appended molecular glue might be the best inhibitor among those listed in Fig. 1. However, as observed by dynamic light scattering (DLS; Fig. S12 ^†), trypsin/Glue29–BA, in contrast with other complexes such as trypsin/Glue10–BA and trypsin/Glue10–Ph, tends to form large aggregates (>200 nm), most likely due to the formation of physical crosslinks between its excessively long glue moiety and trypsin. […] We presume that the poor conformational flexibility of the in-chain Gu^+ units in the glue moiety hinders the ability of the conjugated BA terminus to properly block the substrate-binding site of trypsin. […]
To a Tris–HCl buffer (50 mM Tris–HCl, 10 mM CaCl2, pH 8.0) solution of trypsin (20 nM) was added a Tris–HCl buffer solution of TEG–BA, and the mixture was incubated at 25 °C for 1 min. […] The trypsin activity was determined using pseudo-first order reaction kinetics and normalized to that of untreated trypsin. The trypsin activities in the presence of Gluen–BA, ^mGluen–BA and Gluen–Ph were likewise evaluated.

T1 sequence (P00761 9-231): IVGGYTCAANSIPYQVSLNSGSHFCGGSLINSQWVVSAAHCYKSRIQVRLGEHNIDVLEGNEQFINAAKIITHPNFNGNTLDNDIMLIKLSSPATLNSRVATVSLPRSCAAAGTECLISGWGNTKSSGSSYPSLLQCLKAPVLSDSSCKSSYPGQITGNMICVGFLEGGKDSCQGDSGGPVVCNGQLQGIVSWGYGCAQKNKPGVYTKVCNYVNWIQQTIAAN

For `[N-]=[N+]=NCCOCCOCCOCCNC(=O)CCCC(=O)Nc1ccc(C(=N)N)cc1` [TEG–BA], the Kd on trypsin [1] was 62.5 µM. On trypsin [2] (10 μM compound), the “inhibition of TAME hydrolysis by trypsin at 10 μM” value is listed as “did not exhibit detectable inhibition”. Moreover, at trypsin [2] (25 °C, Tris–HCl buffer pH 8.0, read-out: half-maximal inhibitory concentration (IC50)), the IC50 was 79 µM.
